Molecules are shown by their SMILES.

In the assay the test system is primary mouse OPCs. Put plainly: differentiation assay, immunocytochemical staining for O4 and MBP. The format is cell-based. To be noted: for MBP expression / O4 expression: normalized to DAPI and negative control. As for the experimental part:
The effects of ponesimod, a selective S1P1 receptor agonist, and A971432, a selective S1P5 receptor agonist, on oligodendrocyte precursor cell (OPC) migration and differentiation were evaluated. Nine concentrations were tested (logarithmic dilutions ranging from 0.3 nM to 3000 nM, n=6 per concentration). Fingolimod phosphate (P-FTY720, 3000 nM, n=6) was included as a positive control, 0.1% DMSO was included (min.one/plate) as a negative control. Primary mouse OPCs were harvested on postnatal day 0 or 1 and mixed glia cultures were maintained for 14 days. Primary OPCs were then purified using the shake-off method, and used for either a migration assay, or a differentiation assay, as detailed below. To harvest primary mouse OPCs, cortices are isolated from mouse pups on postnatal day 0 or 1 and placed in ice-cold Dulbecco's Modified Eagle Medium (DMEM) (Sigma Aldrich, Overijse, BE). The cortices are homogenized and centrifuged for 5 minutes at 300 G. The supernatant is removed, and a papain solution is added for 30 minutes (125 uL DMEM solution per brain containing 20 units/ml papain and 40 μg/ml DNase, at 37 degrees). Digestion is inactivated by adding 9 ml cold DMEM. The solution is then centrifuged for 5 minutes at […]. The supernatant is carefully removed, and the pellet is resuspended in 2-5 ml culture medium (DMEM with 10% fetal calf serum (Biowest, Nuaillé, FR) and 1% pen/strep (Sigma Aldrich, Overijse, BE)). […] Cell suspension is divided over PLL (Sigma Aldrich, Overijse, BE)-coated flasks (2 brains per flask) and DMEM is added to a final volume of 10 ml. DMEM is replaced on day 4, 7, and 11. On day 7 and 11, insulin (Sigma Aldrich, Overijse, BE) is added to the medium (5μg/ml). On day 14, OPCs are separated from astrocytes by the shake-off method: flasks are placed on a shaker for 45 minutes at 75 rpm (37 degrees). The medium is then aspirated and discarded, and 10 ml fresh culture medium is added. Flasks are then returned to the shaker for 16-18 hours shaking at 280 rpm. Next, the medium is isolated, and this cell suspension is placed in a plastic petri dish and incubated for 25 minutes. The medium, which contains the OPCs, is then collected and centrifuged for 5 minutes at 300 G. Cells are then resuspended in SATO differentiation medium containing 2% horse serum, 2% B-27, 50 U/ml P/S, 2.4 μl/ml transferrin, 1.04 μl/ml L-thyroxine, 1 μl/ml putrescin, 1 μl/ml progesterone, 1 μl/ml TIT, 0.74 μl/ml sodium selenite and 0.5 μl/ml insulin (all from Sigma-Aldrich, Overijse, BE). […] After shake-off, cells are reset for their differentiation status: one hour after plating, cells are treated with platelet-derived growth factor (PDGF, 10 ng/ml, Peprotech EC Ltd, London, UK) and fibroblast growth factor (fgf, 10 ng/ml, Peprotech EC Ltd, London, UK). Twenty-four hours after plating, cells are treated again with fgf (10 ng/ml). 150,000 cells are plated onto glass coverslips in 24-well plates. […] Aspecific binding was blocked for 30 minutes with 1% bovine serum albumin (BSA) in 0.1% PBS-T, followed by incubation with primary antibodies (O4:R&D systems, Minneapolis, USA, MBP:Merck, Overijse, BE) for four hours at room temperature. After three washing steps with PBS (Lonza group, Bornem, BE), cells are incubated with Invitrogen Alexa Fluor 488 (Alexa 488) or Invitrogen Alexa Fluor 555 (Alexa 555) conjugated secondary antibody for one hour (Life technologies, Carlsbad, USA). […] Sigma-Aldrich, Overijse, […]). Coverslips are mounted with Dako mounting medium (Dako, Carpinteria, USA) and analyzed using a fluorescence microscope (Leica DM2000 LED). Images are quantified using Fiji, ImageJ software. Ponesimod and […] effect on primary mouse OPC differentiation using immunocytochemical staining for O4 and MBP, markers of early and late differentiation stages, respectively, was measured. Fingolimod phosphate, which served as a positive control in the migration assay, was included as well, 0.1% DMSO was included as a negative control. […]

Regarding `O=C(O)C1CN(Cc2ccc(OCc3ccc(Cl)c(Cl)c3)cc2)C1` [A97], under “1000 nM”, the MBP expression result is listed as “significant increase” and the O4 expression entry was “marginally increased”. Further, the O4 expression result (3000 nM) is recorded as “marginally increased”. Besides, the “OPC differentiation (staining for O4 and MBP)” value (high concentration 1000 nM) is “modest increases”.

Take `CCC/N=C1\S/C(=C\c2ccc(OC[C@H](O)CO)c(Cl)c2)C(=O)N1c1ccccc1C` [ponesimod, (R)-5-[3-chloro-4-(2,3-dihydroxy-propoxy)-benz[Z]ylidene]-2-([Z]-propylimino)-3-o-tolyl-thiazolidin-4-one]: where the note is “300 nM”, the MBP expression result is listed as “significant increase” and the O4 expression result was “did not show significantly increased O4 expression”. Moreover, for the setting “1000 nM”, the MBP expression result is “did not show significantly increased MBP expression” and the O4 expression entry was “marginally increased”. Also, where the note is “high concentrations 300 nM-1000 nM”, the “OPC differentiation (staining for O4 and MBP)” value is reported as “Enhanced OPC differentiation”.

The record behind these values is patent US20240261267A1, “METHODS FOR TREATING MULTIPLE SCLEROSIS” (Vanda Pharmaceuticals Inc., priority 2021, published 2024).
